Assay results: patent US10265327B2, “V1A antagonists to treat phase shift sleep disorders” (Hoffmann-La Roche Inc., priority 2013, dated 2019)
“Also recorded” adds a separate entry of the source.

Test system: C57BL/6J mice
Test: Jet-lag test: behavioural re-entrainment to 6 h phase advance of the LD cycle
Format: in vivo, mouse
Conditions: for days to total behavioural re-entrainment after the 6 h phase shift: mean ± SEM, n=5
Procedure: In all studies described below, male young-adult C57BL/6J mice (4 weeks old at the beginning of experiments) were used. Animals were exposed to a light-dark cycle (LD) 12:12 (lights on from 8 h to 20 h geographical time; light intensity at 200 lux; during dark period dim red light of 5 lux) in individual cages with food and water ad libitum and temperature (22±1° C.) and humidity (55%±5%) controlled. LD cycle was represented as zeitgeber times (ZT) where ZT0 represents the lights on and ZT12 lights off. When animals were exposed to constant darkness conditions (DD), circadian times (CT) were used as time point references, where CT12 corresponds to activity onset.
To evaluate the effects of the V1a antagonist trans-8-chloro-5-methyl-1-(4-pyridin-2-yloxycyclohexyl)-4,6-dihydro-[1,2,4]triazolo[4,3-a][1,4]benzodiazepine on light synchronization of behavioural circadian rhythms, a jet-lag protocol of 6 h phase shift was used. After being under a LD cycle 12 h/12 h (for at least 10 days), mice were exposed to a 6 -h phase advance of the light-dark cycle (first “jet-lag” test, advance shift) and to the administration of vehicle or 30 mg/kg of the V1a antagonist trans-8-chloro-5-methyl-1-(4-pyridin-2-yloxycyclohexyl)-4,6-dihydro-[1,2,4]triazolo[4,3-a][1,4]benzodiazepine. On the day of the shift, the time of lights off was phase-advanced by 6 h. Here we used three groups of animals: a sham group (Group 1, n=3), animals in which the cannula was introduced in the oral cavity without any solution delivery; a vehicle group (Group 2, n=4), which received vehicle, and a 30 mg/kg trans-8-chloro-5-methyl-1-(4-pyridin-2-yloxycyclohexyl)-4,6-dihydro-[1,2,4]triazolo[4,3-a][1,4]benzodiazepine group (Group 3, n=5). All manipulations were at ZT6 (6 h after lights on) on the last LD cycle before the 6 h phase advance.
In a second experiment, using naive animals, a second jet-lag test was evaluated. Thus, using a new group of male mice, the effects of 30 mg/kg trans-8-chloro-5-methyl-1-(4-pyridin-2-yloxycyclohexyl)-4,6-dihydro-[1,2,4]triazolo[4,3-a][1,4]benzodiazepine on the re-synchronization to a 6 h phase advance of the LD cycle were tested. Animals under a LD cycle 12 h/12 h (for at least 10 days) were exposed to a phase advance of 6 h of the LD cycle and to the administration of vehicle or 30 mg/kg of the V1a antagonist trans-8-chloro-5-methyl-1-(4-pyridin-2-yloxycyclohexyl)-4,6-dihydro-[1,2,4]triazolo[4,3 -a][1,4]benzodiazepine at ZT/CT6. Similarly to the previous experiment, three groups of animals were used: a sham group (Group 1, n=3), animals in which the cannula was introduced in the oral cavity without any solution delivery; a vehicle group (Group 2, n=4) which received vehicle, and a 30 mg/kg trans-8-chloro-5-methyl-1 -(4-pyridin-2-yloxycyclohexyl)-4,6-dihydro-[1,2,4]triazolo[4,3 -a][1,4]benzodiazepine group (Group 3, n=5).
The locomotor activity rhythms were measured using infra-red detectors on the top of the cages and/or running wheels.
Re-entrainment (jet-lag tests): For 6 h phase-shift (jet-lag protocol) the number of days after the shift for total re-entrainment was quantified, considering both the onset and offset of activity. The onsets and offsets of activity were identified automatically using ClockLab software. Thus, full resynchronization to a new LD cycle, after 6-hour phase shifts of the time of lights off, was considered when activity onset took place at the new time of lights off ±30 minutes. The number of days (transitory cycles) required to re-synchronize was calculated for each mouse. The speed of re-entrainment was evaluated calculating the onset of activity and the advance of it, in hours, daily. To evaluate the effects of manipulations on locomotion, the locomotor activity changes from 0 to 6 h after each treatment were quantified in 30 min intervals (see activity profiles determination).
Values in all experiments are means ±SEM. […]

Structure (SMILES): CN1Cc2cc(Cl)ccc2-n2c(nnc2[C@H]2CC[C@H](Oc3ccccn3)CC2)C1 [Example 1, trans-8-chloro-5-methyl-1-(4-pyridin-2-yloxycyclohexyl)-4,6-dihydro-[1,2,4]triazolo[4,3-a][1,4]benzodiazepine]
- re-entrainment of the circadian clock to a new LD cycle (overall conclusion) (both jet-lag experiments, 30 mg/kg): accelerates the re-entrainment
- locomotor activity induced by manipulations (jet-lag test 1, 30 mg/kg at ZT6, 0 to 6 h after treatment): not significantly different between groups
- daily adjustment of onset of activity to the LD cycle (speed of re-entrainment) (jet-lag test 1, 30 mg/kg at ZT6, first 5 days after the shift, 30 mg/kg): much more rapid daily adjustment; also recorded: significantly faster re-entrainment
- days to total behavioural re-entrainment after the 6 h phase shift (jet-lag test 1, 30 mg/kg oral at ZT6): 3.2 ± 0.33 days
- increase in locomotion induced by manipulations (second jet-lag test, naive mice, 30 mg/kg at ZT/CT6): not significantly different between groups
- daily adjustment of onset of activity to the LD cycle (speed of re-entrainment) (second jet-lag test, naive mice, 30 mg/kg at ZT/CT6, first 4 days after the shift, 30 mg/kg): much more rapid daily adjustment; also recorded: significantly faster re-entrainment
- days to total behavioural re-entrainment after the 6 h phase shift (second jet-lag test, naive mice, 30 mg/kg oral at ZT/CT6): 3.4 ± 0.24 days
